Assay results: patent US20250114294A1, “COMPOSITIONS SUITABLE FOR USE IN SKIN CARE” (Johnson & Johnson Consumer Inc., priority 2023, published 2025)

What was measured:
Assay type in all cases: cell-based, human
aquaporin-3 (AQP3) = test: AQP3 gene expression (TaqMan qPCR) in EpiDerm Full Thickness skin equivalents; settings: EFT-400 skin equivalents, 4 μL topical, 24 hours, normalized to POLR2A, vs PgETOH vehicle
Method: (§1) EpiDerm Full Thickness Skin 3D Equivalents (EFT-400) were purchased from MatTek Corporation (Ashland, MA 01721; lot number 34272, kit N & kit P). Upon receipt the skin equivalents were transferred in new 6-well plates (MatTek Corporation, Ashland, MA 01721) with 2.5 mL of EFT-400 medium (MatTek Corportion, Ashland, MA) and equilibrated overnight.
(§2) The following day, skin equivalents were treated topically with 4 μL of the following treatments: Vehicle, 0.04% Retinol, 0.04% Retinol +0.05% Myrrh resin extract, or 0.04% Retinol +0.1% Myrrh resin extract.
(§3) Propylene glycol/ethanol (PgETOH) (3:7) (w/w) was used as a vehicle. Retinol (BASF 50C) was diluted in PgETOH to a stock concentration of 0.4%. 0.4% Retinol was further diluted to make 0.08% Retinol. Since Retinol is 50% active, the percent active Retinol in the final treatment solution was 0.04% Retinol. Myrrh resin extract (Firmenich) was weighed out to 16.1 mg and diluted in 1.6 mL of PgETOH for a 1% Myrrh resin extract stock solution.
(§4) To make the 0.04% Retinol+0.1% Myrrh resin extract treatment solution combine 100 μL of the 0.4% retinol stock solution, 50 μL of the 1% Myrrh resin extract stock solution, and 350 μL of PgETOH. […]
(§5) The fold changes were calculated in comparison to the vehicle control and two-tailed two-sample Student t-tests (Microsoft Office Excel 2007; Microsoft, Redmond, WA, USA) were performed. […]

[1] = tested on: cellular retinoic acid binding protein 2 (CRABP2); test: CRABP2 gene expression (TaqMan qPCR) in EpiDerm Full Thickness skin equivalents; settings: EFT-400 skin equivalents, 4 μL topical, 24 hours, normalized to POLR2A, vs PgETOH vehicle
Method: as §1, §2, §3, §4, §5

interleukin-8 (IL8) = test: IL8 gene expression (TaqMan qPCR) in EpiDerm Full Thickness skin equivalents; settings: EFT-400 skin equivalents, 4 μL topical, 24 hours, normalized to POLR2A, vs PgETOH vehicle; irritation marker
Method: as §1, §2, §3, §4, §5

CC1=C(/C=C/C(C)=C/C=C/C(C)=C/CO)C(C)(C)CCC1 [Sample 2, Retinol]
AQP3 Average fold change over untreated (aquaporin-3 (AQP3)): 1.82
CRABP2 Average fold change over untreated [1]: 2.22
IL8 Average fold change over untreated (interleukin-8 (IL8)): 1.22
